US20260014232A1, “Pharmaceutical Composition of GLP-1 and GIP Receptor Dual Agonist and Use Thereof” (Jiangsu Hengrui Pharmaceuticals Co., Ltd., priority 2021, published 2026)
Starred links: 1 amine or outer side, 2 acyl side, 3 side chain; linkers in the order of their positions; H or OH if unused. Non-standard residues stand in square brackets, D forms with d. Residues, ends and D or L forms follow the SMILES beside them. Groups on a side chain read outwards from the residue. *: point of attachment. C20 diacid = O=C(O)CCCCCCCCCCCCCCCCCCC(=O)*; γGlu = O=C(O)[C@H](CCC(=O)[*:2])N[*:1]; AEEA = NCCOCCOCC(=O)O; Aib = CC(C)(N)C(=O)O

Assay: Body weight of diet-induced-obesity mice after subcutaneous administration
Assay type: in vivo, C57BL/6 mice
Conditions: for rate of body weight change: DIO mice
Method: High-fat food-induced-obesity male C57BL/6 mice (weighing 35-55 g, aged 10-12 weeks, purchased from Shanghai Jiesijie Laboratory Animal Co., Ltd.) were tested. […] According to the experimental design, the body weight of each mouse was measured and recorded on day 0, day 3, day 6, and so on to day 27, the average body weight of each group of mice was calculated, and body weight change curves were plotted by taking the body weight on the first day as the standard. At the end, the fat and other visceral organs of each part of the mice were taken out and weighed, and the viscera/brain ratio for fat in each part of each mouse was calculated. The effect of the drug on the fat was determined by comparing the change in the viscera/brain ratio for fat of different parts of each group of mice.

CC[C@H](C)[C@H](NC(=O)[C@H](CCCCN)NC(=O)[C@H](CCC(=O)O)NC(=O)[C@H](CCCCNC(=O)COCCOCCNC(=O)COCCOCCNC(=O)CC[C@H](NC(=O)CCCCCCCCCCCCCCCCCCC(=O)O)C(=O)O)NC(=O)[C@H](Cc1ccc(O)cc1)NC(=O)[C@@H](NC(=O)[C@H](CO)NC(=O)[C@H](Cc1ccc(O)cc1)NC(=O)[C@H](CC(=O)O)NC(=O)[C@H](CO)NC(=O)[C@@H](NC(=O)[C@H](Cc1ccccc1)NC(=O)[C@@H](NC(=O)CNC(=O)[C@H](CCC(=O)O)NC(=O)C(C)(C)NC(=O)[C@@H](N)Cc1ccc(O)cc1)[C@@H](C)O)[C@@H](C)O)[C@@H](C)CC)C(=O)N[C@@H](C)C(=O)N[C@@H](C)C(=O)N[C@@H](CCC(N)=O)C(=O)N[C@@H](CCC(=O)O)C(=O)N[C@@H](Cc1ccccc1)C(=O)N[C@H](C(=O)N[C@@H](CC(N)=O)C(=O)N[C@@H](Cc1c[nH]c2ccccc12)C(=O)N[C@@H](CC(C)C)C(=O)N[C@@H](CC(C)C)C(=O)N[C@@H](C)C(=O)NCC(=O)NCC(=O)N1CCC[C@H]1C(=O)N[C@@H](CO)C(=O)N[C@@H](CO)C(=O)NCC(=O)N[C@@H](C)C(=O)N1CCC[C@H]1C(=O)N1CCC[C@H]1C(=O)N1CCC[C@H]1C(=O)N[C@@H](CO)C(N)=O)C(C)C [Compound 18#] (H-Y[Aib]EGTFTSDYSIYK([AEEA-AEEA-γGlu-C20 diacid])EKIAAQEFVNWLLAGGPSSGAPPPS-NH2)
rate of body weight change (3 nmol/kg s.c. every 3 days, day 18): −17.9%
rate of body weight change (3 nmol/kg s.c. every 3 days, day 19): −20.5%
rate of body weight change (3 nmol/kg s.c. every 3 days, day 20): −19.8%
rate of body weight change (3 nmol/kg s.c. every 3 days, day 21): −17.8%
rate of body weight change (3 nmol/kg s.c. every 3 days, day 22): −19.3%
rate of body weight change (3 nmol/kg s.c. every 3 days, day 23): −19.1%
rate of body weight change (3 nmol/kg s.c. every 3 days, day 24): −17.3%
rate of body weight change (3 nmol/kg s.c. every 3 days, day 25): −19.9%
rate of body weight change (3 nmol/kg s.c. every 3 days, day 26): −18.8%
rate of body weight change (3 nmol/kg s.c. every 3 days, day 27): −16.1%
rate of body weight change (3 nmol/kg s.c. every 3 days, day 28): −19.2%
rate of body weight change (10 nmol/kg s.c. every 3 days, day 0 (before administration)): 0%
rate of body weight change (10 nmol/kg s.c. every 3 days, day 1): −6.2%
rate of body weight change (10 nmol/kg s.c. every 3 days, day 2): −8.6%
rate of body weight change (10 nmol/kg s.c. every 3 days, day 3): −9.4%
rate of body weight change (10 nmol/kg s.c. every 3 days, day 4): −12.7%
rate of body weight change (10 nmol/kg s.c. every 3 days, day 5): −14.5%
rate of body weight change (10 nmol/kg s.c. every 3 days, day 6): −15%
rate of body weight change (10 nmol/kg s.c. every 3 days, day 7): −18.3%
rate of body weight change (10 nmol/kg s.c. every 3 days, day 8): −20.1%
rate of body weight change (10 nmol/kg s.c. every 3 days, day 9): −20.3%
rate of body weight change (10 nmol/kg s.c. every 3 days, day 10): −23.4%
rate of body weight change (10 nmol/kg s.c. every 3 days, day 11): −23.9%
rate of body weight change (10 nmol/kg s.c. every 3 days, day 12): −23.5%
rate of body weight change (10 nmol/kg s.c. every 3 days, day 13): −26.4%
rate of body weight change (10 nmol/kg s.c. every 3 days, day 14): −25.1%
rate of body weight change (10 nmol/kg s.c. every 3 days, day 15): −23.4%
rate of body weight change (10 nmol/kg s.c. every 3 days, day 16): −26.6%
rate of body weight change (10 nmol/kg s.c. every 3 days, day 17): −25.7%
rate of body weight change (10 nmol/kg s.c. every 3 days, day 18): −24.6%
rate of body weight change (10 nmol/kg s.c. every 3 days, day 19): −27.5%
rate of body weight change (10 nmol/kg s.c. every 3 days, day 20): −27.3%
rate of body weight change (10 nmol/kg s.c. every 3 days, day 21): −24.8%
rate of body weight change (10 nmol/kg s.c. every 3 days, day 22): −28.1%
rate of body weight change (10 nmol/kg s.c. every 3 days, day 23): −27.1%
rate of body weight change (10 nmol/kg s.c. every 3 days, day 24): −26%
rate of body weight change (10 nmol/kg s.c. every 3 days, day 25): −28.5%
rate of body weight change (10 nmol/kg s.c. every 3 days, day 26): −27.8%
rate of body weight change (10 nmol/kg s.c. every 3 days, day 27): −24.8%
rate of body weight change (10 nmol/kg s.c. every 3 days, day 28): −28.2%
rate of body weight change (100 nmol/kg s.c. every 3 days, day 0 (before administration)): 0%
rate of body weight change (100 nmol/kg s.c. every 3 days, day 1): −6.3%
rate of body weight change (100 nmol/kg s.c. every 3 days, day 2): −10.9%
rate of body weight change (100 nmol/kg s.c. every 3 days, day 3): −13.2%
rate of body weight change (100 nmol/kg s.c. every 3 days, day 4): −15.7%
rate of body weight change (100 nmol/kg s.c. every 3 days, day 5): −19.2%
rate of body weight change (100 nmol/kg s.c. every 3 days, day 6): −21.8%
rate of body weight change (100 nmol/kg s.c. every 3 days, day 7): −24.7%
rate of body weight change (100 nmol/kg s.c. every 3 days, day 8): −27.6%
rate of body weight change (100 nmol/kg s.c. every 3 days, day 9): −29.6%
rate of body weight change (100 nmol/kg s.c. every 3 days, day 10): −31.6%
rate of body weight change (100 nmol/kg s.c. every 3 days, day 11): −33.7%
rate of body weight change (100 nmol/kg s.c. every 3 days, day 12): −34.4%
rate of body weight change (100 nmol/kg s.c. every 3 days, day 13): −35.6%
rate of body weight change (100 nmol/kg s.c. every 3 days, day 14): −36.7%
rate of body weight change (100 nmol/kg s.c. every 3 days, day 15): −35.7%
rate of body weight change (100 nmol/kg s.c. every 3 days, day 17): −38.2%
rate of body weight change (100 nmol/kg s.c. every 3 days, day 18): −37.8%
rate of body weight change (100 nmol/kg s.c. every 3 days, day 19): −38.5%
rate of body weight change (100 nmol/kg s.c. every 3 days, day 20): −39%
rate of body weight change (100 nmol/kg s.c. every 3 days, day 21): −37.4%
rate of body weight change (100 nmol/kg s.c. every 3 days, day 22): −38.3%
rate of body weight change (100 nmol/kg s.c. every 3 days, day 23): −38%
rate of body weight change (100 nmol/kg s.c. every 3 days, day 24): −36.8%
rate of body weight change (100 nmol/kg s.c. every 3 days, day 25): −38.6%
rate of body weight change (100 nmol/kg s.c. every 3 days, day 26): −38.9%
rate of body weight change (100 nmol/kg s.c. every 3 days, day 27): −36.8%
rate of body weight change (100 nmol/kg s.c. every 3 days, day 28): −37.9%
body weight reduced (high-fat food-induced-obesity mice, 10 nmol/kg, day 27): more than 20.0%
